Numbering of substitutions follows the chain as printed. In names and notes the source's numbering stands.

For one assay, the system named is βTC3 cells. Description: NO production in βTC3 cells loaded with DAF-FM (confocal microscopy). The class given is cell-based. To be noted: βTC3 cells starved 4 h, 100 nM insulin vs untreated cells. The protocol: (§1) Cell culture. βTC3 cells were cultured as described (Rizzo et al., 2002) and were transferred to media containing 1 g/L glucose overnight prior to observation. […] For FRAP, CFP-GK-YFP FRET, and nitrosylation experiments, DNA plasmids containing GK-YFP constructs, proinsulin-CFP, or CFP-GK-YFP were introduced by electroporation prior to seeding as previously described (Rizzo et al., 2002). For studies requiring co-transfection, plasmid DNA encoding the indicated constructs were transfected using either a ratio of (2 μg nNOS-CFP:1 μg GK-YFP:6 μl FUGENE (Roche Applied Science)) or of (1 μg nNOS-CFP-nuc:2 μg GK-YFP:6 μl FUGENE). Transfection was for 4 h in serum-free media, followed by replacement with low-glucose media. Observation took place the following day.
Microscopy. βTC3 cells were labeled with 5 μM DAF-FM diacetate (Molecular Probes) for 25 min at 25° C. in BSA free BMHH. Observation was with 488 nm excitation and 505–530 nm collection by laser scanning confocal microscopy (Zeiss LSM510). During observation, cells were heated to 32° C. using a Bioptechs Delta T system. […] Statistical significance (p<0.05 by ANOVA or t-test as appropriate) is denoted by * and was determined from at least three granules in the same region or at least three cells for the FRET studies as compared to pre-treatment FRET ratios. […]

The test system of assay [1] is GK. Description: Intramolecular FRET of CFP-GK-YFP (GK conformation). The class given is cell-based. The settings on record: 5 min; for Insulin-stimulated changes in FRET of mutant CFP-GK-YFP: 100 nM insulin. The protocol:
as §1
(§2) Microscopy. βTC3 cells were labeled with 5 μM DAF-FM diacetate (Molecular Probes) for 25 min at 25° C. in BSA free BMHH. Observation was with 488 nm excitation and 505–530 nm collection by laser scanning confocal microscopy (Zeiss LSM510). During observation, cells were heated to 32° C. using a Bioptechs Delta T system. FRAP and intramolecular FRET measurements were performed on cultured βTC3 cells as previously described (Rizzo et al., 2002). Statistical significance (p<0.05 by ANOVA or t-test as appropriate) is denoted by * and was determined from at least three granules in the same region or at least three cells for the FRET studies as compared to pre-treatment FRET ratios. Data shown is representative of at least 3 independent trials. Observation of nNOS-CFP-nuc and GK-YFP were performed using the same filter settings as the FRAP measurements. FRET between nNOS-CFP and GK-YFP was observed using 864 nm two-photon excitation along with a KP700/514 main beam splitter and standard CFP and YFP collection using a 40×, 1.3NA F-FLUAR oil immersion objective lens. For the FRET measurements, the temperature was maintained at 37° C. using a Zeiss S-M incubator controlled by the CTI temperature regulator along with humidification and an objective heater.

In assay [2] the test system is GK. The assay can be described thus: Detection of S-nitrosylated GK (biotinylation, neutravidin-agarose or immunoprecipitation, Western blot). The class given is cell-based. To be noted: for Nitrosylated GK in neutravidin precipitates: βTC3 cell lysates, insulin alone or L-NAME in addition to insulin; for S-nitrosylation of mutant GK-YFP: mutant GK-YFP constructs expressed in βTC3 cells. The protocol: Detection of nitrosylated proteins. S-nitrosylated proteins were biotinylated and isolated from cell lysates using the protocol described (Jaffrey et al., 2001). Briefly, cells were lysed in HEN buffer (250 mM Hepes pH7.7, 1 mM EDTA, 0.1 mM neocuproine) using 0.5% triton X-100 and 0.5% Cholate prior to protection of free cysteines with methyl methanethiosulfonate (Pierce) and derivatization of S-nitrosylated cysteines with ascorbic acid and biotin-HPDP (Pierce). Biotinylated proteins were either isolated by binding to neutravidin-agarose (Pierce), followed by 5 washes with a high salt buffer (20 mM Hepes pH 7.7, 600 mM NaCl, 1 mM EDTA and 0.5% Triton X-100) and elution in HNE buffer (20 mM Hepes pH 7.7, 100 mM NaCl, 1 mM EDTA) plus 100 mM 2-mercaptoethanol. Alternatively, GK-YFPs were isolated by immunopreciptation with A.V. Peptide Antibody (BD BioSciences Clontech) preconjugated to IgG agarose (Sigma). Western blots were then performed on eluted proteins to detect GK and nitrosylated proteins.

The subject of assay [3] is interaction between nNOS and GK. Description: FRET between nNOS-CFP and GK-YFP in living cells (two-photon microscopy). The class given is cell-based, rat. The settings on record: insulin 100 nM. The protocol: as §1
Generation of constructs. […]
Microscopy. βTC3 cells were labeled with 5 μM DAF-FM diacetate (Molecular Probes) for 25 min at 25° C. in BSA free BMHH. […] Statistical significance (p<0.05 by ANOVA or t-test as appropriate) is denoted by * and was determined from at least three granules in the same region or at least three cells for the FRET studies as compared to pre-treatment FRET ratios. […]

For assay [4], the system named is GK. The assay can be described thus: FRAP of GK-YFP to CFP-labeled insulin granules (GK association with secretory granules). The settings on record: for Insulin-stimulated FRAP of mutant GK-YFP to CFP labeled granules: βTC3 cells, mutant GK-YFP and proinsulin-CFP. Type of assay: cell-based. The protocol: as §1, §2
The target in assay [5] is T1, GK association with nNOS (Mus musculus, UniProt P52792).
T1 construct: the inventors immunoprecipitated endogenous GK from cell lysates; endogenous in cells; host or cells: βTC3 cells
T1 sequence (P52792 1-465): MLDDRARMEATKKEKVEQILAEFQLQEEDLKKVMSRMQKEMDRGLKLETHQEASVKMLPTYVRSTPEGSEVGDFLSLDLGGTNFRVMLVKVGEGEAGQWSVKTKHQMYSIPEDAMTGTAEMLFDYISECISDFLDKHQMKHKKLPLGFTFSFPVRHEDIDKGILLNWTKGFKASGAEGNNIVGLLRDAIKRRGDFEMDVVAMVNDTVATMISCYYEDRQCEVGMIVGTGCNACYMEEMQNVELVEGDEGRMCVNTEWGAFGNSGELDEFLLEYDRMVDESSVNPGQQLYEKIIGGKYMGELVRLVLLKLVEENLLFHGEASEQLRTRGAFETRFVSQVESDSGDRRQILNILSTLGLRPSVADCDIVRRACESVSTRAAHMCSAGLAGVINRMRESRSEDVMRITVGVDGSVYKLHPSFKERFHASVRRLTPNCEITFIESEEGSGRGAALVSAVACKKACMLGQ
The class given is binding. The settings on record: 1 mM DEANO in PBS, 37° C., 10 min.

In assay [6] the test system is GK association with nNOS. The class given is binding. The settings on record: 1 mM DEANO in PBS, 37° C., 10 min.

insulin: in the assay with βTC3 cells, the “NO production (fluorescence of DAF-FM)” value is “rapid increase in the fluorescence of DAF-FM”. In addition, the “FRET ratio between CFP and YFP on opposing ends of GK” value in the assay on GK [1] (βTC3 cells, insulin 100 nM) is recorded as “decreases”. The “Nitrosylated GK in neutravidin precipitates” value in the assay on GK [2] is “detected”. In addition, in assay [3], the “FRET between nNOS-CFP and GK(C371S)-YFP” value was “increased”; the “FRET between nNOS-CFP and GK-YFP” value is reported as “decrease”.

For the molecule `COC(=O)[C@@H](N)CCCNC(=N)N[N+](=O)[O-]` [L-NAME, N^G-nitro-L-arginine-methyl ester, reference compound], the “Effect on insulin-stimulated GK-YFP FRAP” value in the assay on GK [4] (L-NAME 5 mM, 10 min pretreatment, then insulin 100 nM, 5 min) was “blocked the stimulatory effects of insulin on GK-YFP FRAP”. For the same molecule, the “Glucose stimulated activation of GK FRAP and FRET” value in the assay with GK [4] (treatment with L-NAME, data not shown) is recorded as “sensitive”. The “Effect on insulin-induced decrease of the CFP-GK-YFP FRET ratio” value in the assay on GK [1] (L-NAME 5 mM, 10 min before insulin 100 nM) is reported as “prevented the decrease in the FRET ratio”. In addition, the “Nitrosylated GK in neutravidin precipitates” value with GK [2] was “not”.

In the case of `CC(=O)N[C@H](C(=O)O)C(C)(C)SN=O` [SNAP, S-nitroso-N-acetylpenicillamin], in the assay with GK [4] (SNAP 100 μM, 1 min, after L-NAME and insulin), the “Reversal of NOS inhibition in GK-YFP FRAP” value was “effects of NOS inhibition were reversed”.

On to `CCN(CC)/[N+]([O-])=N/O.CCNCC` [DEANO, diethylamine nitric oxide], for which the “Elution of nNOS from endogenous GK and GK-YFP precipitates” value on GK association with nNOS [5] is listed as “resulted in elution of nNOS”. The “Elution of nNOS from GK(C371S)-YFP precipitates” value in the assay with GK association with nNOS [6] is recorded as “not from GK(C371S)-YFP precipitates”.

B1: GK-C371S: glucokinase with cysteine 371 mutated to serine; recombinant His-tagged, or YFP-tagged in cells (protein, UniProt P35557 1-465, looked up, variant C371S)
Hexokinase-4: MLDDRARMEAAKKEKVEQILAEFQLQEEDLKKVMRRMQKEMDRGLRLETHEEASVKMLPTYVRSTPEGSEVGDFLSLDLGGTNFRVMLVKVGEGEEGQWSVKTKHQMYSIPEDAMTGTAEMLFDYISECISDFLDKHQMKHKKLPLGFTFSFPVRHEDIDKGILLNWTKGFKASGAEGNNVVGLLRDAIKRRGDFEMDVVAMVNDTVATMISCYYEDHQCEVGMIVGTGCNACYMEEMQNVELVEGDEGRMCVNTEWGAFGDSGELDEFLLEYDRLVDESSANPGQQLYEKLIGGKYMGELVRLVLLRLVDENLLFHGEASEQLRTRGAFETRFVSQVESDTGDRKQIYNILSTLGLRPSTTDCDIVRRASESVSTRAAHMCSAGLAGVINRMRESRSEDVMRITVGVDGSVYKLHPSFKERFHASVRRLTPSCEITFIESEEGSGRGAALVSAVACKKACMLGQ
modifications: His tag or YFP fusion
notes: glucokinase with cysteine 371 mutated to serine; recombinant His-tagged, or YFP-tagged in cells
With B1, the “Insulin-stimulated FRAP of mutant GK-YFP to CFP labeled granules” value in the assay with GK [4] is listed as “stopped insulin-stimulated FRAP”. In addition, the “Insulin-stimulated changes in FRET of mutant CFP-GK-YFP” value in the assay on GK [1] (βTC3 cells) was “stopped”. Further, in the assay with GK [2], the “S-nitrosylation of mutant GK-YFP” value is reported as “eliminated GK nitrosylation”.

B2: C364S: glucokinase with cysteine 364 mutated to serine, YFP-tagged construct (protein, UniProt P35557 1-465, looked up, variant C364S)
Hexokinase-4: B1 Hexokinase-4 with C364S, S371C
modifications: YFP fusion
notes: glucokinase with cysteine 364 mutated to serine, YFP-tagged construct
B2: the “Insulin-stimulated FRAP of mutant GK-YFP to CFP labeled granules” value in the assay with GK [4] was “did not have a significant effect”. Further, the “Insulin-stimulated changes in FRET of mutant CFP-GK-YFP” value with GK [1] (βTC3 cells) is reported as “did not have a significant effect”. In the assay with GK [2], the “S-nitrosylation of mutant GK-YFP” value is listed as “slight decrease in the amount of nitrosylated GK”.
